Source: PMC11052825 (Clinical Pharmacokinetics, 2024)
Where two headings read alike, the source gives them in different places.

Assays:
[1] = Risk categorization of statins for coadministration with encorafenib; details: qualitative, from metabolic and transporter profile
CYP2B6 [2] = type: in vivo, Human
BCRP [3] = details: in vitro, weak inhibitor; cited from earlier work
[4] = Phase 1 DDI study: plasma PK of encorafenib; type: in vivo; details: human, oral, GM (CV%); for AUC(0-t): AUClast
CYP3A4 = details: cited from earlier work
OATP1B1/3 = details: in vitro, potent inhibitor; cited from earlier work
CYP2B6 [5] = details: in vitro hepatocyte assay, clinically relevant plasma concentrations; cited from earlier work
CYP2B6 [6] = details: in vitro; cited from earlier work
CYP2C19 = details: cited from earlier work
[7] = cited from earlier work
[8] = system: OATP1B1, OATP1B3, and BCRP; type: in vivo, Human; details: phase 1 study and exploratory CP-I analysis
CYP2D6 = details: cited from earlier work
[9] = type: in vivo, Human; details: single oral administrations on days −7, 1 and 14
BCRP [10] = details: cited from earlier work
CYP2B6 and CYP3A4 = details: strong inducer of CYP2B6 and CYP3A4; cited from earlier work
OATP1B1 [11] = details: strong inhibitor of OATP1B1; cited from earlier work
OATP1B1 [12] = target: T1, OATP1B1 (Homo sapiens, UniProt Q9Y6L6); experiment: Maximum fold change of plasma CP-I in phase 3 safety lead-in participants; type: in vivo; details: SLI phase, encorafenib 300 mg QD + cetuximab
T1 sequence (Q9Y6L6 1-691): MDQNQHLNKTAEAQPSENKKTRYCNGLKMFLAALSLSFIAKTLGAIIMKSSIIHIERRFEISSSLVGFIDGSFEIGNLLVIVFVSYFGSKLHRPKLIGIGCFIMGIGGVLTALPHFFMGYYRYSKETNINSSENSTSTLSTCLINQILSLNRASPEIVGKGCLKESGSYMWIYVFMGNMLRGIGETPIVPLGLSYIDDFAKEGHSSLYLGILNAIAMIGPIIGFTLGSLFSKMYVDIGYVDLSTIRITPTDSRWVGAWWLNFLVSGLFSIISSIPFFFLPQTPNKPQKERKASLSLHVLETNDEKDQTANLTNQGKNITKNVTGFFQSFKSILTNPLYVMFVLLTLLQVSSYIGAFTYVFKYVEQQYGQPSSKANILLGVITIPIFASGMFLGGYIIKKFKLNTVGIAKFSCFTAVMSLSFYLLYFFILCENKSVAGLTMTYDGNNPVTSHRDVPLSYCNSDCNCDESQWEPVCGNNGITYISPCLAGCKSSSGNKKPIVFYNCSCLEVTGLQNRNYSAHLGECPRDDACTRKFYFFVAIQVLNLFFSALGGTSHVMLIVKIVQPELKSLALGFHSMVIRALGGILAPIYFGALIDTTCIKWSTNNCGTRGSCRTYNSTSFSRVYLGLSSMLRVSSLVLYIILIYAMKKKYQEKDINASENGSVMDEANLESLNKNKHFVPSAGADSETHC

CC(C)c1c(C(=O)Nc2ccccc2)c(-c2ccccc2)c(-c2ccc(F)cc2)n1CC[C@@H](O)C[C@@H](O)CC(=O)O [Atorvastatin]
Risk category following coadministration with encorafenib [1]: at risk of loss of efficacy

CC(NC(C)(C)C)C(=O)c1cccc(Cl)c1 (centres unmarked) [Bupropion, bupropion]
Decrease in AUClast compared with administration on its own (CYP2B6 [2]; following repeated doses of encorafenib and binimetinib): 26% | Decrease in AUClast compared with administration on its own (CYP2B6 [2]; following single dose of encorafenib and binimetinib): 23%

COC(=O)N[C@@H](C)CNc1nccc(-c2cn(C(C)C)nc2-c2cc(Cl)cc(NS(C)(=O)=O)c2F)n1 [Encorafenib, encorafenib]
R values (inhibition) (BCRP [3]): ≥ 1.1 | AUC(0-t) ([4]; encorafenib single dose (day 1)): 25900 ng·h/mL | AUC(0-t) ([4]; encorafenib steady state (day 14)): 13100 ng·h/mL | Cmax ([4]; Cmax, encorafenib steady state (day 14), n=10): 2940 ng/mL | Share of metabolism (CYP3A4): 83% | R values (inhibition) (OATP1B1/3): ≥ 1.1 | Clinical CYP2B6 inhibition (conclusion) (CYP2B6 [2]; bupropion probe, after a single dose of encorafenib): does not act as an inhibitor of CYP2B6 | Clinical CYP2B6 induction (conclusion) (CYP2B6 [2]; bupropion probe, steady-state encorafenib): likely not a clinically relevant inducer of CYP2B6 | R3 values (induction) (CYP2B6 [5]): < 0.9 | Unbound R1 value (reversible inhibition) (CYP2B6 [6]): 3.1 | Share of metabolism (CYP2C19): 16% | Steady-state exposure lower compared with exposure following a single dose ([7]; autoinduction of CYP3A4): approximately 50% | Estimated bioavailability ([7]; oral, no reference given): at least 86% | Time to peak concentrations ([7]; oral, no reference given): ≤ 2 h | Clinical BCRP inhibition (conclusion) [8]: likely an inhibitor of BCRP | Clinical OATP1B1/3 inhibition (conclusion) [8]: may also inhibit OATP1B1/3 to a lesser extent | Share of metabolism (CYP2D6): 1%

C[C@H]1NC(C)(C)CO[C@]1(O)c1cccc(Cl)c1 [Hydroxybupropion, hydroxybupropion]
Change in AUClast (CYP2B6 [2]; following a single dose of encorafenib and binimetinib): not changed | Increase in AUClast (CYP2B6 [2]; with repeated doses of encorafenib and binimetinib): 48%

CC[C@H](C)C(=O)O[C@H]1C[C@@H](C)C=C2C=C[C@H](C)[C@H](CC[C@@H]3C[C@@H](O)CC(=O)O3)[C@H]21 [Lovastatin]
Risk category following coadministration with encorafenib [1]: at risk of loss of efficacy

O=C(O)C[C@H](O)C[C@H](O)/C=C/c1c(C2CC2)nc2ccccc2c1-c1ccc(F)cc1 [Pitavastatin]
Risk category following coadministration with encorafenib [1]: highest risk of increased exposure

CC[C@H](C)C(=O)O[C@H]1C[C@H](O)C=C2C=C[C@H](C)[C@H](CC[C@@H](O)C[C@@H](O)CC(=O)O)[C@H]21 [Pravastatin]
Risk category following coadministration with encorafenib [1]: least likely to be affected

CC(C)c1nc(N(C)S(C)(=O)=O)nc(-c2ccc(F)cc2)c1/C=C/[C@@H](O)C[C@@H](O)CC(=O)O [Rosuvastatin, rosuvastatin]
Tmax [9]: 2 h | Risk category following coadministration with encorafenib [1]: highest risk of increased exposure | Theoretical maximum fold-change in exposure based on BCRP alone (BCRP [10]): 2 fold

NC(=O)N1c2ccccc2C=Cc2ccccc21 [carbamazepine]
Effect of treatment on bupropion and hydroxybupropion (CYP2B6 and CYP3A4): substantial decrease in bupropion and increase in hydroxybupropion

CO[C@H]1/C=C/O[C@@]2(C)Oc3c(C)c(O)c4c(O)c(c(/C=N/N5CCN(C)CC5)c(O)c4c3C2=O)NC(=O)/C(C)=C\C=C\[C@H](C)[C@H](O)[C@@H](C)[C@@H](O)[C@@H](C)[C@H](OC(C)=O)[C@@H]1C [rifampin]
Plasma CP-I maximum fold-change (OATP1B1 [11]): approximately 6 fold

Coproporphyrin I [CP-I]
Observed maximum fold change in CP-I concentrations (OATP1B1 [12]; C1D1 (single dose), CRC patients): 1.4 fold | Observed maximum fold change in CP-I concentrations (OATP1B1 [12]; C2D1): 1.2 fold
